Entries after “also recorded” stand apart in the source; their conditions may differ.
B1: ranibizumab (antibody, chains of the INN, looked up, V domains shown)
VH: EVQLVESGGGLVQPGGSLRLSCAASGYDFTHYGMNWVRQAPGKGLEWVGWINTYTGEPTYAADFKRRFTFSLDTSKSTAYLQMNSLRAEDTAVYYCAKYPYYYGTSHWYFDVWGQGTLVTVSS
VL: DIQLTQSPSSLSASVGDRVTITCSASQDISNYLNWYQQKPGKAPKVLIYFTSSLHSGVPSRFSGSGSGTDFTLTISSLQPEDFATYYCQQYSTVPWTFGQGTKVEIK
modifications: Fab

Key:
[1] = test system: patient with active fluid within or under the retina; assay: Case studies of Patients 1-8: intravitreal injection, lesion activity followed by OCT and fluorescein angiography; assay type: in vivo, human; conditions: for subretinal fluid and cystoid degeneration: despite photodynamic therapy with verteporfin X2, monthly ranibizumab X12, bevacizumab X15; for subretinal fluid: Patient 1, after 21 previous intravitreal injections of either Lucentis or Avastin; for sub-retinal and sub-RPE fluid: Patient 3, after repeated mono-therapy, ranibizumab 11 times or bevacizumab 3 times
Method: In the following examples, “protocol” treatment means that 0.3 mg of pegaptanib in combination with 0.125 mg of bevacizumab or 0.5 mg of ranibizumab, all in commercially available formulations, were injected intravitreally to a patient, using standard procedures for such injections.
The patient provided written consent following a thorough discussion of relative risks and benefits of the potential use of Macugen® in a combination format with simultaneous administration of intravitreal Avastin®.
Macugen® was first injected intravitreally (0.3 mg in 0.09 cc). Optic nerve perfusion and intraocular pressure were assessed. Upon restoration of adequate perfusion and pressure stabilization, the eye was once again sterilized and a second intravitreal injection of Avastin® (1.25 mg in 0.05 cc) was given. Optic nerve perfusion and intraocular pressure were reassessed, and the patient was scheduled for routine follow-up.

[2] = biological target: heparin-binding domain (HBD) of VEGF (Homo sapiens, UniProt P15692); conditions: Lee et al., FEBS Lett. 2008; cited from earlier work
heparin-binding domain (HBD) of VEGF, sequence (P15692 137-191 isoform P15692-4 limits assumed): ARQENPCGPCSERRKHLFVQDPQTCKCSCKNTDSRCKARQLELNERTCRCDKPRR

[3] = Patient 4, drug used in isolation after protocol treatment

Molecule	subretinal fluid and cystoid degeneration ([1]; Patient 7)	subretinal fluid [1]	sub-retinal and sub-RPE fluid [1]	fluid [1, 3]	fluid ([1]; Patient 6, re-administration of bevacizumab mono-therapy after protocol treatment)	fluid and vision ([1]; Patient 7, return to bevacizumab alone after protocol treatment)	binding affinity [2]	subretinal fluid on OCT ([1]; Patient 2, after 33 consecutive intravitreal ranibizumab treatments)	fluorescein angiogram, late frames ([1]; Patient 2, before combination therapy, after 33 intravitreal ranibizumab)	cystoid macular edema (CME) ([1]; Patient 4, despite 10 ranibizumab injections)	lesion activity on angiogram and OCT ([1]; Patient 6, after 22 ranibizumab treatments)	disease management ([1]; Patient 6, ranibizumab mono-therapy after disease was acutely managed with protocol treatment)
verteporfin	chronic subretinal fluid and cystoid degeneration											
bevacizumab	subretinal fluid (SRF); also recorded: chronic subretinal fluid and cystoid degeneration	chronic subretinal fluid	chronic fluid in the sub-retinal and sub-RPE (retinal pigment epithelium) space	recurrent fluid	recurrent fluid	relapse of fluid and vision loss						
pegaptanib				recurrent fluid			high affinity					
B1	subretinal fluid (SRF); also recorded: chronic subretinal fluid and cystoid degeneration	chronic subretinal fluid	chronic fluid in the sub-retinal and sub-RPE (retinal pigment epithelium) space					subretinal fluid (SRF); also recorded: chronic residual subretinal fluid	leakage from the choroidal neovascular membrane (CNVM)	chronic cystoid macular edema (CME)	persistent lesion activity	could be managed with ranibizumab mono-therapy alone
